Results on seven compounds are retold here after paper PMC6713164, “Inhibitory effects of flavonoids isolated from Sophora flavescens on indoleamine 2,3-dioxygenase 1 activity” (Journal of Enzyme Inhibition and Medicinal Chemistry, 2019).

The target of experiment [1] is T1, IDO1 (Homo sapiens, UniProt P14902). In words: IDO1 enzyme kinetics assay (Lineweaver–Burk, Dixon plots). Format: biochemical. As to conditions: L-Trp 0–50 µM, flavonoids 0–45 µM, read-out: κi. Here is the method:
The kinetics assay was performed by adding purified protein to the reaction mixture (200 µL) which contained a final concentration of potassium phosphate buffer (50 mM, pH 6.5), ascorbic acid (20 mM), catalase (10 mM), methylene blue (10 µM), and distilled water up to 200 µL. Various concentrations of L-Trp as substrate of IDO1 were added to the reaction mixture with four different concentrations of flavonoids (0–45 µM). After incubation at 37 °C for 1 h, the dissociation constant (κi) of the three flavonoids were determined by measuring the activity at five concentrations of L-Trp (0 to 50 µM).

In experiment [2] the target is T1, IDO1. Briefly: Thermal shift assay (SYPRO-Orange). Format: binding. To be noted: 30 µM compound, without L-Trp; read-out: increase of mean melting temperature (ΔTm) compared to DMSO-treated group. Here is the method:
The thermal stability of proteins was measured by SYPRO-Orange (Thermo Fisher Scientific, Waltham, MA) as previously described in Soderhole et al.[24]. Briefly, IDO 1 enzyme (5 µg/mL) was mixed with 30 µM of kushenol F (KF, 4), (2S)-2'-methoxy kurarinone (MK, 5), and kushenol E (KE, 6), or serially diluted KE (6) in 20 µL reaction buffer containing potassium phosphate buffer (50 mM) and sodium chloride (100 mM), and then incubated for 1 h. The measurement of protein denaturation via an increase in temperature was determined using real-time PCR device (CFX96 Real Time System, BioRad, Hercules, CA) using the FRET channel. In the presence of IDO1 enzyme, SYPRO-Orange has a maximum excitation near 490 nm and a maximum emission near 600 nm. The heating rate and fluorescence reading were 0.5 °C/10 s depending on the temperature range 25–95 °C.

Experiment [3] has as its target T2, His-IDO1 (WT) (Homo sapiens, UniProt P14902).
T2 construct: The full-length of IDO1 gene was amplified by PCR; His tag; made in house; host or cells: Escherichia coli T7 strain, vector pET28a
In words: Surface plasmon resonance (SPR) assay, His-IDO1 (WT). Format: binding. Here is the method: (§1) The SPR assay was performed with 10 mM stock solution and five serially diluted concentrations of KE (6) in PBS and 5% DMSO at 25 °C using a Reichert instrument (SR7500DC System, USA) using a sensor chip CM5 (GE Healthcare, Chicago, IL) (Woojung BSC Inc, Seoul, Korea). Amine coupling of His-IDO1 (WT and P314A) was performed with 0.2 M 1-ethyl-3-(3-dimethylaminopropyl)-carbodiimide, 0.05 M N-hydroxysuccinimide, and 1 M ethanolamine (ph 8.5, GE Healthcare, Chicago, IL). The results were analysed using Scrubber software (version 2.0, BioLogic Software, Mundelein, IL).

Experiment [4] has as its target T3, His-IDO1 (P314A) (Homo sapiens, UniProt P14902, P314A).
T3 construct: The full-length of IDO1 gene was amplified by PCR; His tag; made in house
In words: Surface plasmon resonance (SPR) assay, His-IDO1 (P314A). It is filed as binding. The method, then:
as §1
(§2) Point mutations were introduced using the Muta-Direct^TM mutagenesis kit (iNtRON, Seuol, Korea). Oligonucleotides for generation of Pro182 (P182A), Phe185 (F185A), double mutation (P182A and F185A), and Pro 314 (P314A) to alanine mutants (mutated residues are underlined) were as follows: • For P182A: 5′-[…]-3′, 5′-[…]-3′. • For F185A: 5′-[…]-3′, 5′-[…]-3′. • For double mutation (P182A and F185A): 5′-[…]-3′, 5′-[…]-3′. • For P314A: 5′- […]-3′, 5′- […]-3′.

Experiment [5] concerns the target T3, His-IDO1 (P314A). Briefly: Mutagenesis assay: IDO1 enzyme assay with P314A mutant. Format: biochemical. To be noted: mutant form of His-IDO1 (P314A). The method, then:
The enzyme assays were performed with previous descripted in Takikawa et al.[23]. […]. The metabolites were serially diluted in dimethyl sulfoxide (DMSO, 0.5%, v/v) and transferred to a 96-well plates. The reaction was conducted at 37 °C for 1 h and stopped by adding 40 µL of trichloroacetic acid (30%); the solution was then heated at 65 °C for 15 min. The plates were centrifuged at 4000 rpm for 15 min to remove debris. Next, the supernatant (125 µL) from each well was transferred to a 96-well plates. p-dimethylaminobenzaldehyde (125 µL; 2%, v/v) in acetic acid was then added to each well, and the absorbance value of the plate was read at a wavelength of 480 nm using a SpectraMAX-190 ELISA reader (Molecular Devices, Sunnyvale, CA).
as §2

The target of experiment [6] is T1, IDO1. Briefly: Cell-based IDO1 assay (Kyn production) in IFN-γ-treated HeLa cells. Further details: to induce endogenous IDO1 expression; endogenous in cells; host or cells: HeLa cells stimulated with IFN-γ. To be noted: IFN-γ-treated (50 ng/mL, 24 h) HeLa cells, compound 6 h; mean ± SD; read-out: IC50 against cell-based IDO1 (Kyn production). The method, then:
HeLa (Human cervical cancer cells) cells were purchased from the American Type Culture Collection (ATCC) and cultured in DMEM supplemented with fetal bovine serum (FBS, 10%) and penicillin–streptomycin (1%).
HeLa cells were seeded into 48-well plates (2 × 10^4 cells/well). Next, the cells were stimulated with human recombinant IFN-γ (50 ng/mL, R&D Systems, Minneapolis, MN) in complete DMEM for 24 h. After replacing the medium with DMEM containing IFN-γ, the cells were treated with the flavonoids (1–6) or DMSO (0.5%, v/v) for 6 h, and then the supernatant (125 µL) from each well was transferred to a 96-well plate. The cell-based assay was similarly performed to the IDO1 enzyme assay.

Experiment [7] addresses T1, IDO1. In words: IDO1 enzyme assay. It is filed as biochemical. Further details: The full-length of IDO1 gene was amplified by PCR; His tag; made in house; host or cells: Escherichia coli T7 strain, vector pET28a. As to conditions: recombinant human IDO1, L-Trp 200 µM, 37 °C, 1 h, mean ± SD; for IC50: read-out: His-hIDO1 IC50. An excerpt: The Escherihia coli DH5α and T7 strain were used for gene cloning and protein production, respectively. The human IDO1 clone was provided from Korea Human Gene Bank, Medical Genomics Research Center, KRIBB, Korea. The full-length of IDO1 gene was amplified by PCR using pfu DNA polymerase (Thermo Fisher, , Waltham, MA). The PCR product from IDO1 mRNA was cloned into expression vector pET28a to obtain pET28a-IDO1 and confirmed using DNA sequencing (Cosmogenetech, Seoul, Korea). […] The expressed IDO1 protein was purified using Ni-NTA agarose (Qiagen, Valencia, CA) at 4 °C. The eluted IDO1 protein was dialysed using storage buffer (20 mM Tris-HCl buffer (pH 8.0 and 200 mM NaCl)). The purified IDO1 protein was analysed with SDS-PAGE.
The enzyme assays were performed with previous descripted in Takikawa et al.[23]. Briefly, 200 µL of the reaction mixture contained potassium phosphate buffer (50 mM, pH 6.5), ascorbic acid (20 mM), methylene blue (10 µM), catalase (10 mM), purified recombinant human IDO1 enzyme (5 µg/mL) and L-Trp (200 µM). The metabolites were serially diluted in dimethyl sulfoxide (DMSO, 0.5%, v/v) and transferred to a 96-well plates. […] The plates were centrifuged at 4000 rpm for 15 min to remove debris. Next, the supernatant (125 µL) from each well was transferred to a 96-well plates. p-dimethylaminobenzaldehyde (125 µL; 2%, v/v) in acetic acid was then added to each well, and the absorbance value of the plate was read at a wavelength of 480 nm using a SpectraMAX-190 ELISA reader (Molecular Devices, Sunnyvale, CA).

Where [8] appears, read: standard error in parentheses, read-out: Ka.

T3 sequence (P14902 whole entry P314A): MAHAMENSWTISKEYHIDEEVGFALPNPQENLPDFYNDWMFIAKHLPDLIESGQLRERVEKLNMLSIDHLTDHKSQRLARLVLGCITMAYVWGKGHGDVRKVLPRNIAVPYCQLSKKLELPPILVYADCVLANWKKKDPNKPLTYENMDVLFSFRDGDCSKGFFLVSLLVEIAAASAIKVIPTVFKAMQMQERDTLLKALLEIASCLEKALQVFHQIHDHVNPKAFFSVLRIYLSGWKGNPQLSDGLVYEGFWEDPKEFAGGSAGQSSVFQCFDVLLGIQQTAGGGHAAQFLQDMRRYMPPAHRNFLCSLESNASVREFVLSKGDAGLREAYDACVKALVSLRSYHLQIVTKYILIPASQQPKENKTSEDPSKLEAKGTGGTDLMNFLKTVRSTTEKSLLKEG
T1 sequence (P14902 whole entry): as the sequence (P14902 whole entry P314A) above, with A314P counted along it
T2 sequence (P14902 whole entry): as the sequence (P14902 whole entry P314A) above, with A314P counted along it

As to `CC(C)=CCc1c(O)c(CC=C(C)C)c2c(c1O)C(=O)C[C@@H](c1ccc(O)cc1O)O2` [Kushenol E (KE, 6), kushenol E], the Ki in experiment [1] is 9.5 ± 0.6 µM. For the same compound, the ΔTm at 30 µM in experiment [2] was found to be 5.7 °C. For the same compound, the Kd stood at 6.5 ± 0.1 µM in experiment [3] (25 °C, PBS 5% DMSO) and 8.9 ± 0.2 µM in experiment [4] (25 °C, PBS 5% DMSO). For the same compound, the kon in experiment [3] (setting [8]) was determined as 136 M⁻¹ s⁻¹; in experiment [4] (setting [8]), 120 M⁻¹ s⁻¹. Further, the IC50 in experiment [5] stood at 29.8 ± 1.8 µM; in experiment [6], 4.3 ± 0.3 µM; in experiment [7], 7.7 ± 6.2 µM.
For the compound `O=C1CC(c2ccc(O)cc2O)Oc2cc(O)cc(O)c21` (stereo not drawn) [Steppogenin, steppogenin, reference compound], the “His-hIDO1 IC50” value in experiment [7] is reported as “does not affect IDO1 inhibitory activity”.
For the compound `CC(C)=CCc1c(O)cc(O)c2c(=O)c(O)c(-c3ccc(O)cc3)oc12` [Noranhydroicaritin (1), noranhydroicaritin], the IC50 in experiment [6] is 42.2 ± 3.5 µM; in experiment [7], 23.5 ± 2.2 µM.
`C=C(C)[C@H](CC=C(C)C)Cc1c(O)cc(O)c2c1O[C@H](c1ccc(O)cc1O)CC2=O` [Kushenol F (KF, 4), kushenol F]: the Ki in experiment [1] stood at 20.2 ± 3.1 µM. In experiment [2], the thermal shift (ΔTm) at 30 µM worked out at 1.5 °C. The figures for the IC50 in experiment [6] and in experiment [7] were 28.3 ± 0.3 µM and 25.4 ± 4.4 µM, respectively.
Regarding `C=C(C)[C@H](CC=C(C)C)Cc1c(O)cc(OC)c2c1O[C@H](c1ccc(O)cc1OC)CC2=O` [(2S)-2′-Methoxy kurarinone (MK, 5), (2S)-2'-methoxy kurarinone], the Ki in experiment [1] is 13.7 ± 0.03 µM. In addition, in experiment [2], the ΔTm at 30 µM was 0.4 °C. Also, the half-maximal inhibitory concentration (IC50) in experiment [6] came to 23.8 ± 1.6 µM; in experiment [7], 31.4 ± 1.3 µM.
Consider `CC(C)=CCc1c(O)cc(O)c2c1OC(c1ccc(O)cc1)CC2=O` (stereo not drawn) [Sophoraflavanone B (2), sophoraflavanone B], for which the half-inhibitory concentration (IC50) in experiment [6] amounted to 83.6 ± 10.8 µM; in experiment [7], 19.3 ± 1.1 µM.
As to `C=C(C)[C@H](CC=C(C)C)Cc1c(O)cc(OC)c2c1O[C@H](c1ccc(O)cc1O)CC2=O` [(−)-Kurarinone (3), (−)-kurarinone], the half-inhibitory concentration (IC50) in experiment [6] stood at 74.9 ± 4.9 µM; in experiment [7] it was 23.4 ± 1.3 µM.
